This note sets out measurements from patent US12617831B2 (UNIVERSITE D'ANGERS, priority 2019, dated 2026).

Experiment [1] deals with human GIPr and the human GLP-2r. The experiment can be described thus: Cyclic AMP assay (FRET, H74 probe), HEK-293 co-transfected with human GIPr and human GLP-2r. In kind it is cell-based. The conditions noted are these: HEK 293 co-transfected with human GIPr and human GLP-2r, 10^-9 M, 30 min (FIG. 18). Here is the method:
(§1) Human HEK-293 cells were plated at a density of 2×10^5 cells/cm^2 in 4 well microslides (ibidi GmbH, Martinsried, Germany). […] Jalink (Netherland Cancer Institute, Amsterdam, Netherland). […] The image acquisition was performed with a 63 X, 1.4 N.A. oil immersion objective and a Hybrid® detector (Leica) and images were collected after 30 minutes. Donor excitation was made with a 458 nm Ar laser, donor emission was collected between 460-505 nm and acceptor emission between 520-600 nm by setting the SP8 spectrometer accordingly. FRET was expressed as the ratio between donor and acceptor signals.

The target of experiment [2] is T1, human GLP-2r (Homo sapiens, UniProt O95838).
T1 construct: host or cells: HEK-293
T1 sequence (O95838 1-553): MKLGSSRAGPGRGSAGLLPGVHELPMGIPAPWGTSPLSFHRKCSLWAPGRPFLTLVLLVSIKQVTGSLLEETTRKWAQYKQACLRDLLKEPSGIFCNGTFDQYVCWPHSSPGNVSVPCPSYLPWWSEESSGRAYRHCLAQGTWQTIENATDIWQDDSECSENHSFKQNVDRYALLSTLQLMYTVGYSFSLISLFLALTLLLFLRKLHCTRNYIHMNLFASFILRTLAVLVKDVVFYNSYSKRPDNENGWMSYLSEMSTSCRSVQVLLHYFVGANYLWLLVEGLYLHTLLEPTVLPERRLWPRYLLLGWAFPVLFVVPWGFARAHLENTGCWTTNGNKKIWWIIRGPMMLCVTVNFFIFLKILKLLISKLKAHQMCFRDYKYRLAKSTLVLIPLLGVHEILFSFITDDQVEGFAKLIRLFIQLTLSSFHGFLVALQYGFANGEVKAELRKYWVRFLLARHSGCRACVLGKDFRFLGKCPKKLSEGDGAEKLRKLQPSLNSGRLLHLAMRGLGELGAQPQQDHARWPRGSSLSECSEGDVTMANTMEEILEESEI
The experiment can be described thus: Cyclic AMP assay (FRET, H74 probe), HEK-293 transfected with human GLP-2r. It counts as cell-based. Conditions: HEK 293 transfected only with human GLP-2r, 10^-9 M, 30 min (FIG. 17). Here is the method:
as §1

Experiment [3] relates to Murine MC3T3-E1 cells. The experiment can be described thus: Collagen maturity assay in MC3T3-E1 cultures (Example 2). In kind it is cell-based. The conditions noted are these: MC3T3-E1 cultures, 200 nM, vs vehicle (FIG. 2). The method, then: At confluence, the propagation medium was replaced by the differentiation medium containing αMEM supplemented with 5% FBS, 5% bovine calf serum, 100 U/mL penicillin, 100 μg/mL streptomycin, 50 μg/ml ascorbic acid and various concentrations of analogues. This day was considered as day 1. The differentiation medium was replenished every two days. […] Cultures were rinsed at least six times with milliQ water, fixed in absolute ethanol, scrapped off the culture dish and transferred onto BaF2 windows where they were air-dried. Integrity of the collagen extracellular matrix was verified by comparing the obtained Fourier transform infrared spectrum with those of commercial collagen. Spectral analysis was performed using a Bruker Vertex 70 spectrometer (Bruker optics, Ettlingen, Germany) interfaced with a Bruker Hyperion 3000 infrared microscope equipped with a standard single element Mercury Cadmium Telluride (MCT) detector. Infrared spectra were recorded at a resolution of 4 cm^−1, with an average of 32 scans in transmission mode. Background spectral images were collected under identical conditions from the same BaF2 windows at the beginning and end of each experiment to ensure instrument stability. At least 20 spectra were acquired for each condition and analyzed with a lab-made routine script in Matlab R2016b (The Mathworks, Natick, MA).

Experiment [4] relates to Murine Raw 264.7 cells. In kind it is cell-based. The method, then: Murine Raw 264.7 cells were grown and expanded in propagation medium containing Dulbecco's modified Eagle medium (DMEM-Gibco) supplemented with 10% fetal bovine serum (FBS-Lonza), 100 U/mL penicillin and 100 μg/mL streptomycin (Gibco) in a humidified atmosphere enriched with 5% CO2 at 37° C. The first passage after thawing Raw 264.7 cells was considered as passage 1. Cells were used up to passage 8. […] Cultures were rinsed three times in distilled water and the residual activity was inhibited by 4% NaF (Sigma-Aldrich) for 30 min. Cells were then rinsed in distilled water and allowed to dry. TRAcP positive cells, with more than three nuclei, were identified as osteoclasts. The number of newly generated osteoclasts was assessed using light microscopic examination by a histologist that was blinded to the treatment intervention. […] For each concentration of peptide, the mean, SD and number of events were computed.

Experiment [5] relates to MC3T3-E1 subclone 4 cells. In kind it is cell-based, murine. The method, then:
Briefly, MC3T3-E1 subclone 4 cells have been grown and propagated in α-MEM supplemented with 5% fetal bovine serum (FBS), 5% bovine calf serum (BCS), 100 U/mL penicillin, and 100 μg/mL streptomycin in a humidified atmosphere enriched with 5% CO2 at 37° C. […] This day was considered as day 1. The differentiation medium was replenished every two days. […] Cultures were rinsed at least six times with milliQ water, fixed in absolute ethanol, scrapped off the culture dish and transferred onto BaF2 windows where they were air-dried. Integrity of the collagen extracellular matrix was verified by comparing the obtained Fourier transform infrared spectrum with those of commercial collagen. Spectral analysis was performed using a Bruker Vertex 70 spectrometer (Bruker optics, Ettlingen, Germany) interfaced with a Bruker Hyperion 3000 infrared microscope equipped with a standard single element Mercury Cadmium Telluride (MCT) detector. Calibration of the infrared spectrometer is done once a week with a polystyrene film standard (Bruker optics). Infrared spectra were recorded at a resolution of 4 cm^-1, with an average of 32 scans in transmission mode. Background spectral images were collected under identical conditions from the same BaF2 windows at the beginning and end of each experiment to ensure instrument stability. At least 5 spectra were acquired for each condition and analyzed with a lab-made routine script (version 2.0) in Matlab R2016b (The Mathworks, Natick, MA). […] For GIP and GLP-2 dataset, the inventors used the collagen maturity data previously acquired and analyzed. First of all, collagen maturity obtained in control cultures, i.e. in the absence of double GIP/GLP-2 analogues, were averaged and subtracted to the all dataset. […] For each concentration of peptide, the mean, SD and number of events were computed. […] The GraphPad Prism analysis consisted in: […] Statistical Analysis […] Data are represented as mean±SD.

Experiment [6] concerns human peripheral blood mononuclear cells. Nature of the experiment: Human osteoclast formation from peripheral blood mononuclear cells. It counts as cell-based. Conditions: human PBMC, M-CSF 25 ng/ml + sRANKL 50 ng/ml, 1 nM peptide (FIG. 3). The method, then: Human peripheral blood mononuclear cells were isolated from 3 buffy coats obtained at the Etablissement Francais du Sang (Angers, France) as described in Mabilleau and Sabokbar (2009) PLoS One 4:e4173. Blood was diluted 1:1 in α-minimal essential medium (MEM) (Invitrogen, Paisley, UK), layered over Histopaque and centrifuged (700×g) for 20 min. The interface layer was resuspended in MEM then centrifuged (600×g) for a further 10 min after which the resultant cells were resuspended in media supplemented with 10% heat inactivated foetal calf serum (FCS, Invitrogen, Paisley, UK) and counted in a haemocytometer following lysis of red blood cells using a 5% (v/v) acetic acid solution. […] (2011) J Biol Chem 286:3242-3249). After 2 h incubation, cultures were vigorously rinsed in medium to remove non-adherent cells, and then maintained in 1 ml MEM/FCS with 25 ng/ml recombinant human M-CSF, 50 ng/ml recombinant human sRANKL (added at day 7) and various concentrations of gut hormone analogues (added at day 7). Cultures were terminated after 14 days to assess the extent of osteoclast formation (TRAcP staining as described below). All factors were replenished every 2-3 days. […] Cultures were rinsed three times in distilled water and the residual activity was inhibited by 4% NaF for 30 minutes. […] The number of newly generated were assessed using light microscopic examination.

In the case of `CC[C@H](C)[C@H](NC(=O)[C@H](Cc1ccccc1)NC(=O)[C@H](CC(=O)O)NC(=O)[C@H](CCCNC(=N)N)NC(=O)[C@H](C)NC(=O)[C@H](C)NC(=O)[C@H](CC(C)C)NC(=O)[C@H](CC(N)=O)NC(=O)[C@H](CC(=O)O)NC(=O)[C@H](CC(C)C)NC(=O)[C@@H](NC(=O)[C@@H](NC(=O)[C@H](CC(N)=O)NC(=O)[C@H](CCSC)NC(=O)[C@H](CCC(=O)O)NC(=O)[C@H](CC(=O)O)NC(=O)[C@H](CO)NC(=O)[C@H](Cc1ccccc1)NC(=O)[C@H](CO)NC(=O)CNC(=O)[C@H](CC(=O)O)NC(=O)CNC(=O)[C@@H](N)Cc1c[nH]cn1)[C@@H](C)O)[C@@H](C)CC)C(=O)N[C@@H](CC(N)=O)C(=O)N[C@@H](Cc1c[nH]c2ccccc12)C(=O)N[C@@H](CC(C)C)C(=O)N[C@H](C(=O)N[C@@H](CCC(N)=O)C(=O)N[C@H](C(=O)N[C@@H](CCCCN)C(=O)N[C@H](C(=O)N[C@H](C(=O)N[C@@H](CC(=O)O)C(=O)O)[C@@H](C)O)[C@@H](C)CC)[C@@H](C)O)[C@@H](C)CC` [[Gly^2]GLP-2], the “intracellular levels of cAMP” value in experiment [1] and in experiment [2] was “increased intracellular levels of cAMP” each time. Further, in experiment [3], the “increase in collagen maturity” value was around 111%. In addition, the EC50 is 0.0322 nM in experiment [4] and 0.063 ± 0.042 nM in experiment [5]. In experiment [4] (Raw 264.7, RANKL 10 ng/ml, 110 h, * values determined from previous experiments, in pM), the “IC50 computed from curve fitting of osteoclastogenesis vs. peptide concentration” value was 32.2*. The “Emax, maximum inhibitory effect on osteoclastogenesis” value in experiment [4] (Raw 264.7, * data obtained in previous experiments) is 68.12* %. Further, in experiment [5] (MC3T3-E1, day 14), the “Emax for dose-effect curves on collagen maturity” value is reported as 119.3%. For the same compound, in experiment [6], the “reduction in osteoclast formation” value is recorded as 34%.
